US6815546B2, “Analogues of camptothecin, their use as medicaments and the pharmaceutical compositions containing them” (Societe de Recherches et d'Applications Scientifiques …, priority 1995, dated 2004)

How the values were obtained:
Assay type in all cases: cell-based
U87 (human glioblastoma) = assay: Test on cell proliferation (MTT test), U87; details: 72 hours
Protocol: (§1) a. Eight tumoral cell lines are used in this study: L1210 (mouse lymphocytic leukemia), HCT15 and LOVO (cell lines of human colon adenocarcinoma), A549 (human lung carcinoma), A172, U373 et U87 (human glioblastoma). All these lines are obtained from the American Type Culture Collection (ATCC), Rockville, Md. The L1210 cell cultures in suspension are cultured in Dulbecco's modified Eagle's medium (DMEM) (BioWhitaker, Verviers, Belgium) together with 10% of foetal calf serum inactivated by heating, 2 mM of glutamine, 50 μg/ml of penicillin and 50 μg/ml of streptomycin. The HT29 cells are cultured in mono-layer cultures in a McCoy 5a medium (Gibco, Paisley, United Kingdom) together with 10% of foetal calf serum inactivated by heat plus 2 mM of glutamine and 50 μg/ml of gentamycin. The other cells are cultured in an Earle's modified essential medium (EMEM; Gibco, Paisley, United Kingdom) together with 5% foetal calf serum inactivated by heat, 2 mM of glutamine, 50 U/ml of penicillin and 50 μg/ml of streptomycin. All the cell lines are cultured at 37° C. in a humidified atmosphere containing 95% air and 5% CO2.
(§2) Inhibition of the tumor cell line proliferation is determined using an MTT test. 1500 L1210 cells in a culture medium (according to the needs of the cell medium) are seeded in a well of a micro-well plate (tissue culture level: 96 wells, flat bottom) 24 hours before treatment with the compounds to be tested. For these dose-response studies, the cells are incubated with each of the compounds to be tested or their corresponding solvent (controls) for 48 hours over a final concentration range of 1.10^−10 to 1.10^−4 M. All the compounds are dissolved just before use in dimethylsulphoxide (DMSO) at a concentration of 50 mM. Other dilutions of the medicaments are carried out in the culture medium. The final concentration of DMSO never exceeds 0.2% (v/v). As controls, the solutions of medicaments are replaced with the solvent which is diluted successively in the same way as the compounds to be tested.
(§3) After the incubation period, the labeling reagent MTT (3-[4,5-dimethylthiazol-2-yl]-2,5-diphenyltetrazolium bromide; Thiazol blue, Sigma M 565, Sigma, St Louis, Mo.) is added at a final concentration of 0.3 mg/ml to each well. The cells are incubated for 4 hours at 37° C. in a humidified atmosphere. This stage allows the mitochondrial dehydrogenase of the living cells to convert the yellow tetrazolium salt MTT into crimson formazan crystals. The supernatant part is eliminated and the formazan crystals formed are solubilized with DMSO. The resultant coloured solution is quantified by absorbance at 570 nm by using a multi-cuvette scanning spectrophotometer. The data concerning the proliferation is expressed as a percentage of living cells in the treated wells, divided by the living cells in the controls. Each point represents the average of three independent experiments, each experiment represents six determinations.
(§4) For the other cell lines (HCT15, LOVO, A549, A172, U373, U87), 1000 to 2000 cells are seeded in the well of a micro-well plate 24 hours before medicinal treatment. […]
(§5) The results are expressed as percentages of the calculated proliferation by the optical density (OD) of the cells treated with a medicament divided by the OD of the control cells (cells treated with DMSO). As represented in Table II, the compounds to be tested have inhibited the proliferation of cells in a dose-dependent manner.

[1] = test system: L1210 (mouse lymphocytic leukemia); assay: Test on cell proliferation (MTT test), L1210; details: 48 hours
Protocol: as §1, §2, §3, §5

[2] = test system: U373 (human glioblastoma); assay: Test on cell proliferation (MTT test), U373; details: 72 hours
Protocol: as §1, §2, §3, §4, §5

[3] = test system: LOVO (cell lines of human colon adenocarcinoma); assay: Test on cell proliferation (MTT test), LOVO; details: 72 hours
Protocol: as §1, §2, §3, §4, §5

[4] = test system: A172 (human glioblastoma); assay: Test on cell proliferation (MTT test), A172; details: 72 hours
Protocol: as §1, §2, §3, §4, §5

[5] = test system: HCT15 (cell lines of human colon adenocarcinoma); assay: Test on cell proliferation (MTT test), HCT15; details: 72 hours
Protocol: as §1, §2, §3, §4, §5

[6] = test system: A549 (human lung carcinoma); assay: Test on cell proliferation (MTT test), A549; details: 72 hours
Protocol: as §1, §2, §3, §4, §5

## CCc1c2c(nc3ccccc13)-c1cc3c(c(=O)n1C2)COC(=O)CC3(O)CC (stereo not shown) [Example 9, 5,12-diethyl-5-hydroxy-1,4,5,13-tetrahydro-3H,15H-oxepino[3′,4′:6,7]indolizino[1,2-b]quinoline-3,15-dione]
U87 (human glioblastoma); 0.1 nM
  PERCENTAGE OF CELL PROLIFERATION: 105.00%
U87 (human glioblastoma); 1 nM
  PERCENTAGE OF CELL PROLIFERATION: 72.00%
U87 (human glioblastoma); 10 nM
  PERCENTAGE OF CELL PROLIFERATION: 14.00%
U87 (human glioblastoma); 100 nM
  PERCENTAGE OF CELL PROLIFERATION: 7.00%
U87 (human glioblastoma); 1 000 nM
  PERCENTAGE OF CELL PROLIFERATION: 4.00%
U87 (human glioblastoma); 10 000 nM
  PERCENTAGE OF CELL PROLIFERATION: 2.00%
U87 (human glioblastoma); 100 000 nM
  PERCENTAGE OF CELL PROLIFERATION: 6.00%
[1]; 0.1 nM
  PERCENTAGE OF CELL PROLIFERATION: 74.04%
[1]; 1 nM
  PERCENTAGE OF CELL PROLIFERATION: 62.05%
[1]; 10 nM
  PERCENTAGE OF CELL PROLIFERATION: 44.72%
[1]; 100 nM
  PERCENTAGE OF CELL PROLIFERATION: 34.01%
[1]; 1 000 nM
  PERCENTAGE OF CELL PROLIFERATION: 20.20%
[1]; 10 000 nM
  PERCENTAGE OF CELL PROLIFERATION: 4.34%
[1]; 100 000 nM
  PERCENTAGE OF CELL PROLIFERATION: 1.58%
[2]; 0.1 nM
  PERCENTAGE OF CELL PROLIFERATION: 89.00%
[2]; 1 nM
  PERCENTAGE OF CELL PROLIFERATION: 69.00%
[2]; 10 nM
  PERCENTAGE OF CELL PROLIFERATION: 24.00%
[2]; 100 nM
  PERCENTAGE OF CELL PROLIFERATION: 18.00%
[2]; 1 000 nM
  PERCENTAGE OF CELL PROLIFERATION: 8.00%
[2]; 10 000 nM
  PERCENTAGE OF CELL PROLIFERATION: 3.00%
[2]; 100 000 nM
  PERCENTAGE OF CELL PROLIFERATION: 1.00%
[3]; 0.1 nM
  PERCENTAGE OF CELL PROLIFERATION: 74.00%
[3]; 1 nM
  PERCENTAGE OF CELL PROLIFERATION: 85.00%
[3]; 10 nM
  PERCENTAGE OF CELL PROLIFERATION: 44.00%
[3]; 100 nM
  PERCENTAGE OF CELL PROLIFERATION: 31.00%
[3]; 1 000 nM
  PERCENTAGE OF CELL PROLIFERATION: 21.00%
[3]; 10 000 nM
  PERCENTAGE OF CELL PROLIFERATION: 4.00%
[3]; 100 000 nM
  PERCENTAGE OF CELL PROLIFERATION: 2.00%
[4]; 0.1 nM
  PERCENTAGE OF CELL PROLIFERATION: 97.00%
[4]; 1 nM
  PERCENTAGE OF CELL PROLIFERATION: 89.00%
[4]; 10 nM
  PERCENTAGE OF CELL PROLIFERATION: 44.00%
[4]; 100 nM
  PERCENTAGE OF CELL PROLIFERATION: 36.00%
[4]; 1 000 nM
  PERCENTAGE OF CELL PROLIFERATION: 19.00%
[4]; 10 000 nM
  PERCENTAGE OF CELL PROLIFERATION: 3.00%
[4]; 100 000 nM
  PERCENTAGE OF CELL PROLIFERATION: 1.00%
[5]; 0.1 nM
  PERCENTAGE OF CELL PROLIFERATION: 94.00%
[5]; 1 nM
  PERCENTAGE OF CELL PROLIFERATION: 89.00%
[5]; 10 nM
  PERCENTAGE OF CELL PROLIFERATION: 59.00%
[5]; 100 nM
  PERCENTAGE OF CELL PROLIFERATION: 35.00%
[5]; 1 000 nM
  PERCENTAGE OF CELL PROLIFERATION: 15.00%
[5]; 10 000 nM
  PERCENTAGE OF CELL PROLIFERATION: 8.00%
[5]; 100 000 nM
  PERCENTAGE OF CELL PROLIFERATION: 3.00%
[6]; 0.1 nM
  PERCENTAGE OF CELL PROLIFERATION: 91.00%
[6]; 1 nM
  PERCENTAGE OF CELL PROLIFERATION: 88.00%
[6]; 10 nM
  PERCENTAGE OF CELL PROLIFERATION: 50.00%
[6]; 100 nM
  PERCENTAGE OF CELL PROLIFERATION: 31.00%
[6]; 1 000 nM
  PERCENTAGE OF CELL PROLIFERATION: 23.00%
[6]; 10 000 nM
  PERCENTAGE OF CELL PROLIFERATION: 5.00%
[6]; 100 000 nM
  PERCENTAGE OF CELL PROLIFERATION: 3.00%
